Where two headings read alike, the source gives them in different places.
Legend:
liver cancer cell Huh7 = assay: In vitro cell line screening, Huh7; format: cell-based
Source text: In different tumor cytotoxicity experiments in vitro (FIG. 2-FIG. 7), including colorectal cancer cell lines HT29 and LoVo cells, liver cancer cell Huh7, lung cancer cells H460 and A549, the arf1 inhibitor could all inhibit tumor cell growth (FIG. 2-FIG. 6), and there was a dose-dependent manner (FIG. 7).

B16-F10 melanoma = assay: Drug-treated B16-F10 cells in athymic nude mice; format: in vivo; parameters: unit not given here; conditions: cells treated with 10 μM Du 102
Procedure: The immunogenicity of the reagents can be tested in mouse vaccination models (Obeid et al., 2007; Sagiv barfi et al., 2018). One flank of the mouse was injected with drug treated tumor cells, followed one week later by a second injection of syngeneic tumor cells. We tested the vaccine efficacy in CT-26 colon cancer, B16-F10 melanoma, and 4T1 breast cancer treated with DMSO or du102.
Cells will be treated with 10 μM Du 102 or DMSO treated CT26, 4T1 and B16-F10 tumor cells (5×10^5\1×10^5 and 5×10^5, respectively) were subcutaneously inoculated into 6-week-old female mice. After 7 days, equal amounts of corresponding tumor cells were seeded to the right side. Tumor cell lines were mixed with Matrigel (GIBCO, cat s̆ 354234) or resuspended in PBS and injected subcutaneously or intradermally.

Substance: 1H-indolo-5-carbaldehyde 5,6,7,8,9,10-hexahydrocycloocta[4,5]thieno[2,3-d]pyrimidin-4-ylhydrazone [Du 102]
- tumor suppressive effect (liver cancer cell Huh7): Tumor suppression effect
- tumor suppressive effect (liver cancer cell Huh7; listed as Dul02): effective tumor suppressive effects
- B16-F10 melanoma tumor in Athymic mice (B16-F10 melanoma; Day 0): 0
- B16-F10 melanoma tumor in Athymic mice (B16-F10 melanoma; Day 5): 7.3
- B16-F10 melanoma tumor in Athymic mice (B16-F10 melanoma; Day 10): 51.8
- B16-F10 melanoma tumor in Athymic mice (B16-F10 melanoma; Day 15): 202.7
- B16-F10 melanoma tumor in Athymic mice (B16-F10 melanoma; Day 20): 355.9
- B16-F10 melanoma tumor in Athymic mice (B16-F10 melanoma; Day 25): 853.4

From patent US20240382487A1, “NOVEL COPI/ARF1-LIPOLYSIS PATHWAY INHIBITOR AND COMPOUND FOR ERADICATING CANCER STEM CELLS AND INDUCING DAMP-MEDIATED ANTI-TUMOR IMMUNE RESPONSE” (FUDAN UNIVERSITY, priority 2020, published 2024)
